Measured values published in patent US4277479A, “Tetrazolylalkoxycarbostyril derivatives and pharmaceutical compositions containing them” (Otsuka Pharmaceutical Co., Ltd., priority 1978, dated 1981).
Like-named read-outs stand apart in the source and are kept apart here.

Experiments:
[1] = tested on: rabbit platelet (collagen-induced aggregation); experiment: Platelet aggregation inhibitory effect, collagen-induced aggregation in rabbit platelet; assay type: cell-based; conditions: Oryctolagus cuniculus, read-out: Inhibition effect on collagen-induced aggregation in rabbit platelet
Excerpt: (§1) The blood sample used for the test is a 1/9 (by volume) mixture of sodium citrate and whole blood collected from rabbit. Said sample is subjected to 10-minute centrifugal separation at 1,000 r.p.m. to obtain a platelet rich plasma (PRP). The thus obtained PRP is separated, and the remaining blood sample is further subjected to 15-minute centrifugal separation at 3,000 r.p.m. to obtain a platelet poor plasma (PPP).
(§2) The number of platelets in the PRP is counted by the Brecher-Clonkite Method, and the PRP is diluted with the PPP to prepare a PRP sample with platelet concentration of 300,000/mm^3 for the adenosine diphosphate (ADP)-induced aggregation test. There is also prepared a PRP sample with platelet concentration of 450,000/mm^3 for the collagen-induced aggregation test.
(§3) 0.6 Ml of said PRP sample is added into 0.01 ml of a solution of a test compound of a predetermined concentration and the mixture is placed in a 37° C. thermostat for one minute. Then 0.07 ml of an ADP or collagen solution is added to the mixture. Transmittance of this mixture is determined and the change of transmittance is recorded by using the aggregometer at stirrer speed of 1,100 r.p.m. […] ADP is adjusted to a concentration of 7.5×10^-5 M, and the collagen solution is prepared by triturating 100 mg of collagen with 5 ml of said buffer and the supernatant is used as collagen inducer. Adenosine and acetylsalicylic acid are used as controls for the ADP-induced aggregation test and the collagen-induced aggregation test, respectively. The platelet aggregation inhibitory effect is measured in terms of percent inhibition with respect to the aggregation rate of the controls. The aggregation rate is calculated from the following formula: [formula] wherein a: transmittance of PRP
(§4) b: transmittance of PRP containing a test compound and an aggregation inducer
(§5) The compounds tested are as follows.

[2] = tested on: rabbit platelet (ADP-induced aggregation); experiment: Platelet aggregation inhibitory effect, ADP-induced aggregation in rabbit platelet; assay type: cell-based; conditions: Oryctolagus cuniculus, read-out: Inhibition effect on ADP-induced aggregation in rabbit platelet
Excerpt: as §1, §2, §3, §4, §5

Acute toxicity test = conditions: mouse, in vivo; male mice, oral administration
Experimental: The test compounds were administered orally to the mice and LD50 (mg/kg) of the compounds was determined.

[3] = molecular target: T1, cyclic AMP phosphodiesterase (Oryctolagus cuniculus, UniProt G1ST54); experiment: Obstructive action against cyclic AMP phosphodiesterase; assay type: biochemical, rabbit; conditions: 0.4 μmol cyclic AMP, read-out: Phosphodiesterase obstruction rate
T1 construct: the supernatant was collected to use it as a crude enzyme solution; from tissue; host or cells: rabbit platelets (from platelet-rich plasma)
T1 sequence (G1ST54 1-1128): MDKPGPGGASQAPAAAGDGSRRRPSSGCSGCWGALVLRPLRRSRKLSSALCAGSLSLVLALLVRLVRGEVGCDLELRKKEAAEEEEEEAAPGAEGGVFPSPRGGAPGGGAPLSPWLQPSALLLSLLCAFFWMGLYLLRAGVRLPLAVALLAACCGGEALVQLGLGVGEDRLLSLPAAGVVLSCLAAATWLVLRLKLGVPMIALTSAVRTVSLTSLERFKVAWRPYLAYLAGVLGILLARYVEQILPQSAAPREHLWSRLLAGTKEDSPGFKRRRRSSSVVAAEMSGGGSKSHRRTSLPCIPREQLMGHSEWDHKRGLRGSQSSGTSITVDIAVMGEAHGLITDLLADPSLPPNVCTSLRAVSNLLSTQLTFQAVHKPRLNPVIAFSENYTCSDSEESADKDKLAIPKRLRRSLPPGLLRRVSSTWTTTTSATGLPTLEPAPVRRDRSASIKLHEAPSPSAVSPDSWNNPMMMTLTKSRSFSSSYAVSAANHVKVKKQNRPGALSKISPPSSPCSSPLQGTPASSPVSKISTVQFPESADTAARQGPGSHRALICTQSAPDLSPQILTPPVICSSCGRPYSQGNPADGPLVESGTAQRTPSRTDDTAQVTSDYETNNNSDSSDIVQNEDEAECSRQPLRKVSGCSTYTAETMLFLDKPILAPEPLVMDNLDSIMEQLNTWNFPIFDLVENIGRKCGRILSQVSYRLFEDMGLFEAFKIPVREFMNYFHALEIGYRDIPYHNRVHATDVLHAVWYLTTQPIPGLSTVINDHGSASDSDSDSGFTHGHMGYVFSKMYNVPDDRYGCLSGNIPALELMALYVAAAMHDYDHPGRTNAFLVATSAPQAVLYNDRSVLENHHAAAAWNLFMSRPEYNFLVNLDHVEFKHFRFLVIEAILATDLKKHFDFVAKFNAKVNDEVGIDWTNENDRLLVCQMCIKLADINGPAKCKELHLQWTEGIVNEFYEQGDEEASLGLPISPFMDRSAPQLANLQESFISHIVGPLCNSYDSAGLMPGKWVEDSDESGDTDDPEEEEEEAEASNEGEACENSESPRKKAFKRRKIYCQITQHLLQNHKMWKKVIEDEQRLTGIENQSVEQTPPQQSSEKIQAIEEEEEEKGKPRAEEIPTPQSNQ
Experimental: (Test of obstructive action against cyclic AMP phosphodiesterase)
The obstructive action against cyclic AMP phosphodiesterase was measured according to the activity measuring method described in "Biochimica et Biophysica Acta", Vol. 429, pp. 485-497 (1976) and "Biochemical Medicine", Vol. 10, pp. 301-311 (1974).
That is, for determining the obstructive activity against cyclic AMP phosphodiesterase, 10 ml of a solution obtained by adding 1 mmol of MgCl2 into 50 mmol of tris-hydrochloric acid buffer with pH 7.4 was added to the platelets obtained by further centrifuging the above-said rabbit PRP at 3,000 r.p.m. for 10 minutes, and the suspended platelets were ground by a Teflon potter type homogenizer. This was followed by two times of freezing and thawing treatment and 300-second fracturing with 200 watt supersonic waves. After additional 60-minute centrifugation with 100,000 g, the supernatant was collected to use it as a crude enzyme solution.
10 Milliliters of this crude buffer solution was added to a 1.5×20 cm DEAE-cellulose column which has previously been buffered with 50 mmol of tris-acetate buffer (pH 6.0), followed by washing and elution with 30 ml of 50 mmol tris-acetate buffer, and this buffer solution was subjected to linear gradient elution with 0 to 1 moles of sodium acetate-tris-acetate buffer. The flow rate was 0.5 ml/min, and 5 ml of each fraction was batched out. […] This fraction was used as cyclic AMP phosphodiesterase.
0.1 Milliliter of an aqueous solution of each test compound of a specified concentration was mixed with 40 mmol of tris-hydrochloric acid buffer (pH 8.0, containing 50 μg of cow serum albumin and 4 mmol of MgCl2) containing predetermined 0.4 μmol of cyclic AMP (tritium cyclic AMP), and 0.2 ml of this mixed solution was used as a substrate solution.
0.2 Milliliter of the above-prepared cyclic AMP phosphodiesterase of a predetermined concentration was added to said substrate solution and the mixture was reacted at 30° C. for 20 minutes, producing tritium 5'-AMP from the tritium cyclic AMP.
The reaction system was then immersed in boiling water for 2 minutes to stop the reaction, and then this reaction solution was cooled in ice water and, for converting the produced tritium 5'-AMP into tritium adenosine, the solution was added with 0.05 ml (1 mg/ml) of snake poison as 5'-nucleotidase and reacted at 30° C. for 10 minutes. The whole amount of this reaction solutions was then added to a cation exchange resin (AG 500 W×4, 200-400 meshes, manufactured by Bio-Rad Co., column size: 0.5×1.5 cm), and the produced tritium anodesine alone was allowed to combine, washed with 6 ml of distilled water and eluted with 1.5 ml of 3 N-ammonia water. The whole quantity of the elutant was added with 10 ml of a triton-toluene type scintillator and the produced tritium adenosine was measured by a liquid scintillation counter to determine the phosphodiesterase activity.
In this way, the phosphodiesterase activation value (Vs) of the test compounds of the respective concentrations was determined, and the phosphodiesterase obstruction rate (%) was determined from said activation value (Vs) and control value (Vc) (obtained from water not containing any test compound) from the following formula: [formula]

[4] = concentration of the test compound solution 10^-4 mole
[5] = concentration of the test compound solution 10^-5 mole

SMILES | inhibition at 100 µM [1, 4] | inhibition at 100 µM [2, 4] | inhibition at 10 µM [1, 5] | further results
O=C1CCc2c(cccc2OCCN2CCOCC2)N1 [Compound 22, 5-(2-Morpholinoethoxy)-3,4-dihydrocarbostyril, reference compound] | 23% | 13% |  | 
CC(=O)Oc1ccccc1C(=O)O [Compound 17, Aspirin, reference compound] |  |  |  | inhibition at 1 µM [1]: 7%; inhibition at 10 µM [1]: 9%; inhibition at 100 µM [1]: 65%; inhibition at 10 µM [2]: 0%; inhibition at 100 µM [2]: 7%
CC(COc1cccc2c1NC(=O)CC2)N1CCCCC1 (stereo not shown) [Compound 26, 8-(2-Piperidinopropoxy)-3,4-dihydrocarbostyril, reference compound] | 12% | 14% |  | 
O=C1CCc2c(cccc2OCCCc2nnnn2C2CCCCC2)N1 [Compound 11, 5-[3-(1-Cyclohexyltetrazol-5-yl)propoxy]-3,4-dihydrocarbostyril] | 98.4% | 90.4% | 42.4% | inhibition at 10 µM [2, 5]: 30.2%; LD50 (Acute toxicity test): > 1000 mg/kg
CC(C)Cn1c(=O)n(C)c(=O)c2[nH]cnc21 [1-Methyl-3-isobutylxanthine, 1-methyl-3-isobutylxanthine, reference compound] |  |  |  | inhibition at 1 µM ([3]; concentration of test compound solution 10^-6 mole): 63.4%; inhibition ([3]; concentration of test compound solution 10^-7 mole): 4.2%
CSc1nnn(CCCOc2ccc3c(c2)CCC(=O)N3)n1 [Compound 19, 6-[3-(5-Methylthiotetrazol-2-yl)propoxy]-3,4-dihydrocarbostyril, reference compound] | 73.4% | 2.3% | 1.3% | 
COc1cc(C(=O)N2C(=O)CCc3cc(OCCCc4nnnn4C4CCCCC4)ccc32)cc(OC)c1OC [Compound 16, 1-(3,4,5-Trimethoxybenzoyl)-6-[3-(1-cyclohexyltetrazol-5-yl)propoxy]-3,4-dihydrocarbostyril] | 91.3% | 75.6% | 45.3% | inhibition at 10 µM [2, 5]: 48.4%; LD50 (Acute toxicity test): > 1000 mg/kg
O=C1CCc2c(cccc2OCCCN2CCCCC2)N1 [Compound 23, 5-(3-Piperidinopropoxy)-3,4-dihydrocarbostyril, reference compound] | 27% | 15% |  | 
CC(=O)N1C(=O)CCc2cc(OCCCc3nnnn3C3CCCCC3)ccc21 [Compound 14, 1-Acetyl-6-[3-(1-cyclohexyltetrazol-5-yl)propoxy]-3,4-dihydrocarbostyril] | 86.8% | 79.4% | 47.3% | inhibition at 10 µM [2, 5]: 43.2%; LD50 (Acute toxicity test): > 1000 mg/kg
O=C1CCc2cc(OCCN3CCOCC3)ccc2N1 [Compound 24, 6-(2-Morpholinoethoxy)-3,4-dihydrocarbostyril, reference compound] | 31% | 17% |  | 
C=CCn1c(=O)ccc2cc(OCCCc3nnnn3C3CCCCC3)ccc21 [Compound 13, 1-Allyl-6-[3-(1-cyclohexyltetrazol-5-yl)propoxy]carbostyril] | 89.7% | 81.6% | 44.8% | inhibition at 1 µM ([1]; concentration of the test compound solution 10^-6 mole): 23.2%; inhibition at 10 µM [2, 5]: 41.7%; LD50 (Acute toxicity test): > 1000 mg/kg
O=C1CCc2c(cccc2OCCN2CCCCC2)N1 [Compound 21, 5-(2-Piperidinoethoxy)-3,4-dihydrocarbostyril, reference compound] | 25% | 18% |  | 
O=C1CCc2ccc(OCCCN3CCCCC3)cc2N1 [Compound 25, 7-(3-Piperidinopropoxy)-3,4-dihydrocarbostyril, reference compound] | 18% | 12% |  | 
CSc1nnnn1CCCOc1ccc2c(c1)CCC(=O)N2 [Compound 18, 6-[3-(5-Methylthiotetrazol-1-yl)propoxy]-3,4-dihydrocarbostyril, reference compound] | 67.4% | 0% | 13.3% | 
O=C1CCc2cc(OCCCn3cnnn3)ccc2N1 [Compound 20, 6-[3-(Tetrazol-1-yl)propoxy]-3,4-dihydrocarbostyril, reference compound] | 77.4% | 4.3% | 0% | 
